Five molecules from ChEMBL document CHEMBL4190325, “[…] Extracts as Tools to Balance Estrogenic and Chemopreventive Activities of Botanicals for Women's Health” (J Nat Prod, 2017) can be followed below.

Bounds are passed on as bounds.

The target of one experiment is T1, Estrogen receptor (Homo sapiens, UniProt P03372).
T1 sequence (P03372 whole entry): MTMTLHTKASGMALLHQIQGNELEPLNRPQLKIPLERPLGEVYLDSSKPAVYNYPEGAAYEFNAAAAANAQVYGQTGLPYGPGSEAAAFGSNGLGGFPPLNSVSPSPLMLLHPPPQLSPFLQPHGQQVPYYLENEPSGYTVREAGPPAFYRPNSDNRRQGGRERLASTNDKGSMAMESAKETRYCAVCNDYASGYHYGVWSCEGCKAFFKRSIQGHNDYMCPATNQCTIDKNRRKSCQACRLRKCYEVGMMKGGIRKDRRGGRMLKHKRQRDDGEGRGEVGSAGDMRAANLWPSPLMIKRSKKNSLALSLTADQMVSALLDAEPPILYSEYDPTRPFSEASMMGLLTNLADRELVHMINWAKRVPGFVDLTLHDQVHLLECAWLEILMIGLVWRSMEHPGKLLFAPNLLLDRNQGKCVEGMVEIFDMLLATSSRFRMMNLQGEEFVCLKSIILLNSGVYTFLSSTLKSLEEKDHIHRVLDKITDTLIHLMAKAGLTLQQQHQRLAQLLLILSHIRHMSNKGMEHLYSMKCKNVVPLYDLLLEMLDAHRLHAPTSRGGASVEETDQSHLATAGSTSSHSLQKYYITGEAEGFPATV
The experiment is described as follows: Estrogenic activity at estrogen receptor alpha in human Ishikawa cells assessed as induction of alkaline phosphatase activity using p-Nitrophenol phosphate as substrate pretreated for 96 hrs followed by substrate addition measured every 15 secs by scanning spectrophotometric analysis. It counts as cell-based.

Experiment [1] addresses NAD(P)H dehydrogenase [quinone] 1 (Mus musculus) (UniProt Q64669).
Description: Induction of NQO1 activity in mouse Hepa1c1c7 cells after 48 hrs by MTT reduction assay
In another experiment the test system is Ishikawa. Description: cells. Particulars: Homo sapiens, 96 h; call rule not given here.
The next experiment can be described thus: cells. Particulars: Mus musculus, Hepa-1c1c7, 48 h.

Sequence of NAD(P)H dehydrogenase [quinone] 1 (Mus musculus) (Q64669 whole entry): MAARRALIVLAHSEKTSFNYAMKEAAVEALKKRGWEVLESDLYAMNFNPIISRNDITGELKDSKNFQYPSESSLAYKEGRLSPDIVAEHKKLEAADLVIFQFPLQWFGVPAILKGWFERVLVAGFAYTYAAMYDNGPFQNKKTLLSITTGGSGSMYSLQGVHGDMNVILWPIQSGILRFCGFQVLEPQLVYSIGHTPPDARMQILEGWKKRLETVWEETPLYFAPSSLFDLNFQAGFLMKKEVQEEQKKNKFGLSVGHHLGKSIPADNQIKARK
Description for Ishikawa: Cytotoxicity against human Ishikawa cells after 96 hrs by SRB assay

In the case of `CC(C)=CCc1c(O)cc2c(c1O)C(=O)CC(c1ccc(O)cc1)O2` (stereo unspecified), the EC50 at Estrogen receptor (read-out: EC50) turned out to be 0.4 µM. In experiment [1], this molecule displayed a CD of over 30 µM. Besides, the IC50 is over 5 µM in the experiment on Ishikawa and over 20 µM in the experiment “cells”.
Molecule `O=c1cc(-c2ccc(Br)cc2)oc2ccccc12` showed an IC50 in the experiment “cells” of 0.7 to 166 µM.
On to `CC(C)=CCc1c(O)cc(O)c2c1O[C@H](c1ccc(O)cc1)CC2=O`, for which the CD in experiment [1] is over 30 µM. The IC50 in the experiment on Ishikawa was 19.1 µM; in the experiment “cells” it was over 20 µM.
Consider `COc1cc(O)c(CC=C(C)C)c2c1C(=O)CC(c1ccc(O)cc1)O2` (stereo unspecified) [ISOXANTHOHUMOL], for which, at Estrogen receptor (read-out: EC50), the EC50 was 1.4 µM. In experiment [1], this molecule had a CD of over 50 µM. Further, the values for the IC50 with Ishikawa and in the experiment “cells” were 24.9 µM and 30.7 µM, respectively.
Take `COc1cc(O)c(CC=C(C)C)c(O)c1C(=O)/C=C/c1ccc(O)cc1` [XANTHOHUMOL]: the EC50 entry at Estrogen receptor (ishikawa) was “Not Active”. Also, the CD in experiment [1] was determined as 1.3 µM. Further, the IC50 is 4.2 µM in the experiment with Ishikawa and 17.5 µM in “cells”.
